ChEMBL document CHEMBL3045187, “Chemical weed control in seedbed sown onion (Allium cepa L.)” (Crop Prot, 2006)

What was measured:
[1] = system: Chenopodiastrum murale; test: Herbicidal activity against Chenopodium murale assessed as total fresh weight at 0.225 kg/ha applied as spray during postemergence (reference value: 23.6 MT/ha); assay type: functional
[2] = system: Chenopodiastrum murale; test: Herbicidal activity against Chenopodium murale assessed as total dry weight at 0.225 kg/ha applied as spray during postemergence (reference value: 4.1 MT/ha); assay type: functional
[3] = system: Allium cepa; test: Phytotoxicity in Allium cepa (onion) seedling assessed as total fresh weight at 0.225 kg/ha applied as spray during post-emergence (reference value: 7.71 MT/ha); assay type: organism-based; conditions: in vivo, other
[4] = system: Malva sylvestris; test: Herbicidal activity against Malva sylvestris assessed as total fresh weight at 0.225 kg/ha applied as spray during post-emergence (reference value: 23.6 MT/ha); assay type: functional
[5] = system: Cyperus rotundus; test: Herbicidal activity against Cyperus rotundus assessed as total fresh weight at 0.225 kg/ha applied as spray during post-emergence (reference value: 23.6 MT/ha); assay type: functional
[6] = system: Malva sylvestris; test: Herbicidal activity against Malva sylvestris assessed as total dry weight at 0.225 kg/ha applied as spray during post-emergence (reference value: 4.1 MT/ha); assay type: functional
[7] = system: Cyperus rotundus; test: Herbicidal activity against Cyperus rotundus assessed as total dry weight at 0.225 kg/ha applied as spray during post-emergence (reference value: 4.1 MT/ha); assay type: functional
[8] = system: Cyperus rotundus; test: Herbicidal activity against Cyperus rotundus assessed as total dry weight at 0.6 kg/ha applied as spray before seed sowing (reference value: 4.1 MT/ha); assay type: functional
[9] = system: Allium cepa; test: Phytotoxicity in Allium cepa (onion) seedling assessed as total fresh weight at 0.6 kg/ha applied as spray during post-emergence (reference value: 7.71 MT/ha); assay type: organism-based; conditions: in vivo, other
[10] = system: Chenopodiastrum murale; test: Herbicidal activity against Chenopodium murale assessed as total fresh weight at 0.6 kg/ha applied as spray during postemergence (reference value: 23.6 MT/ha); assay type: functional
[11] = system: Cyperus rotundus; test: Herbicidal activity against Cyperus rotundus assessed as total fresh weight at 0.6 kg/ha applied as spray before seed sowing (reference value: 23.6 MT/ha); assay type: functional
[12] = system: Chenopodiastrum murale; test: Herbicidal activity against Chenopodium murale assessed as total dry weight at 0.6 kg/ha applied as spray before seed sowing (reference value: 4.1 MT/ha); assay type: functional
[13] = system: Allium cepa; test: Phytotoxicity in Allium cepa (onion) seedling assessed as total fresh weight at 0.6 kg/ha applied as spray before seed sowing (reference value: 7.71 MT/ha); assay type: organism-based; conditions: in vivo, other
[14] = system: Chenopodiastrum murale; test: Herbicidal activity against Chenopodium murale assessed as decrease in total dry weight at 0.6 kg/ha applied as spray during postemergence relative to weed-infested control; assay type: functional; design: scale not given: the % may be the effect or the level left
[15] = system: Cyperus rotundus; test: Herbicidal activity against Cyperus rotundus assessed as decrease in total dry weight at 0.6 kg/ha applied as spray during post-emergence relative to weed-infested control; assay type: functional; design: scale not given: the % may be the effect or the level left
[16] = system: Malva sylvestris; test: Herbicidal activity against Malva sylvestris assessed as total fresh weight at 0.6 kg/ha applied as spray during post-emergence (reference value: 23.6 MT/ha); assay type: functional
[17] = system: Malva sylvestris; test: Herbicidal activity against Malva sylvestris assessed as total dry weight at 0.6 kg/ha applied as spray before seed sowing (reference value: 4.1 MT/ha); assay type: functional
[18] = system: Malva sylvestris; test: Herbicidal activity against Malva sylvestris assessed as decrease in total dry weight at 0.6 kg/ha applied as spray during post-emergence relative to weed-infested control; assay type: functional; design: scale not given: the % may be the effect or the level left
[19] = system: Cyperus rotundus; test: Herbicidal activity against Cyperus rotundus assessed as total fresh weight at 0.6 kg/ha applied as spray during post-emergence (reference value: 23.6 MT/ha); assay type: functional
[20] = system: Chenopodiastrum murale; test: Herbicidal activity against Chenopodium murale assessed as total fresh weight at 0.6 kg/ha applied as spray before seed sowing (reference value: 23.6 MT/ha); assay type: functional
[21] = system: Malva sylvestris; test: Herbicidal activity against Malva sylvestris assessed as total fresh weight at 0.6 kg/ha applied as spray before seed sowing (reference value: 23.6 MT/ha); assay type: functional
[22] = system: Chenopodiastrum murale; test: Herbicidal activity against Chenopodium murale assessed as total fresh weight at 0.02 kg/ha applied as spray during postemergence (reference value: 23.6 MT/ha); assay type: functional
[23] = system: Malva sylvestris; test: Herbicidal activity against Malva sylvestris assessed as total fresh weight at 0.02 kg/ha applied as spray during post-emergence (reference value: 23.6 MT/ha); assay type: functional
[24] = system: Cyperus rotundus; test: Herbicidal activity against Cyperus rotundus assessed as total fresh weight at 0.02 kg/ha applied as spray during post-emergence (reference value: 23.6 MT/ha); assay type: functional
[25] = system: Chenopodiastrum murale; test: Herbicidal activity against Chenopodium murale assessed as decrease in total dry weight at 0.02 kg/ha applied as spray during postemergence relative to weed-infested control; assay type: functional; design: scale not given: the % may be the effect or the level left
[26] = system: Malva sylvestris; test: Herbicidal activity against Malva sylvestris assessed as decrease in total dry weight at 0.02 kg/ha applied as spray during post-emergence relative to weed-infested control; assay type: functional; design: scale not given: the % may be the effect or the level left
[27] = system: Allium cepa; test: Phytotoxicity in Allium cepa (onion) seedling assessed as total fresh weight at 0.02 kg/ha applied as spray during postemergence (reference value: 7.71 MT/ha); assay type: organism-based; conditions: in vivo, other
[28] = system: Cyperus rotundus; test: Herbicidal activity against Cyperus rotundus assessed as decrease in total dry weight at 0.02 kg/ha applied as spray during post-emergence relative to weed-infested control; assay type: functional; design: scale not given: the % may be the effect or the level left
[29] = system: Cyperus rotundus; test: Herbicidal activity against Cyperus rotundus assessed as total dry weight at 1.5 kg/ha applied as spray before seed sowing (reference value: 4.1 MT/ha); assay type: functional; conditions: pooled result: one value given for 3 cell lines, strains, targets or settings
[30] = system: Cyperus rotundus; test: Herbicidal activity against Cyperus rotundus assessed as total fresh weight at 1.5 kg/ha applied as spray before seed sowing (reference value: 23.6 MT/ha); assay type: functional; conditions: pooled result: one value given for 3 cell lines, strains, targets or settings
[31] = system: Allium cepa; test: Phytotoxicity in Allium cepa (onion) seedling assessed as total fresh weight at 1.5 kg/ha applied as spray before seed sowing (reference value: 7.71 MT/ha); assay type: organism-based; conditions: in vivo, other

`C[C@@H](Oc1ccc(Oc2ccc(C(F)(F)F)cn2)cc1)C(=O)O` [FLUAZIFOP-P] gave an Activity [1] of 15.6 MT/ha, an Activity [2] of 2.9 MT/ha and an Activity [3] of 9.18 MT/ha. The Activity [4] was 15.6 MT/ha, the Activity [5] was 15.6 MT/ha and the Activity [6] was 2.9 MT/ha. It also gave an Activity [7] of 2.9 MT/ha.
`CCOc1cc(Oc2ccc(C(F)(F)F)cc2Cl)ccc1[N+](=O)[O-]` [OXYFLUORFEN] showed an Activity [8] of 2.93 MT/ha, an Activity [9] of 17.01 MT/ha and an Activity [10] of 7.7 MT/ha. For the same compound, the Activity [11] was 15.8 MT/ha, the Activity [12] was 2.93 MT/ha and the Activity [13] was 8.68 MT/ha. It also gave an Activity [14] of 68%, an Activity [15] of 68% and an Activity [16] of 7.7 MT/ha. For the same compound, the Activity [17] was 2.93 MT/ha, the Activity [18] was 68% and the Activity [19] was 7.7 MT/ha. For the same compound, the Activity [20] was 15.8 MT/ha and the Activity [21] was 15.8 MT/ha.
Compound `C[n+]1ccc(-c2cc[n+](C)cc2)cc1` [PARAQUAT] has an Activity [22] of 8.2 MT/ha, an Activity [23] of 8.2 MT/ha and an Activity [24] of 8.2 MT/ha. For the same compound, the Activity [25] was 60%, the Activity [26] was 60% and the Activity [27] was 14.11 MT/ha. For the same compound, the Activity [28] was 60%.
With `CCC(CC)Nc1c([N+](=O)[O-])cc(C)c(C)c1[N+](=O)[O-]` [PENDIMETHALIN] the Activity [29] was 2.9 MT/ha, the Activity [30] was 17.5 MT/ha and the Activity [31] was 7.42 MT/ha.
